# Earlier results, collected in patent publication US4130647A, “Methods for treating congestive heart failure and ischemic heart disease” (priority 1977, dated 1978).
# Test system: patients with congestive heart failure
# Conditions: cited from earlier work
SMILES,left ventricular filling pressures (heart failure),side effects (in vivo),Pulmonary Wedge Pressure (left ventricular failure),right atrial pressure and forearm veins (left ventricular failure),cardiac output (when left ventricular filling pressures fall below the upper limits of normal)
NNc1nncc2ccccc12 [hydralazine],does not usually lower left ventricular filling pressures,serologic side effects and leading to sodium retention,only slightly reduces pulmonary wedge pressure,does not reduce right atrial pressure or dilate forearm veins,
O=[N+]([O-])OCC(CO[N+](=O)[O-])O[N+](=O)[O-] [nitroglycerin],,,,,A similar phenomenon is observed
